Measured values taken from article PMC9455983 (International Journal of Molecular Sciences, 2022).
Read-outs that look alike come from different tables or passages of the source.

How the values were obtained:
mu-opioid receptor (MOR) = biological target: T1, mu-opioid receptor (MOR) (Rattus norvegicus, UniProt P33535); test: MOR radioligand competition binding assay ([3H]-DAMGO); conditions: Mu screening results
T1 construct: Rat cortices were homogenized using 50 mM Tris, pH 7.4, and centrifuged at 16,500 rpm for 10 min; from tissue; host or cells: rat cortex membranes
Description: MOR binding assay: Rat cortices were homogenized using 50 mM Tris, pH 7.4, and centrifuged at 16,500 rpm for 10 min. The pellets were resuspended in fresh buffer and incubated at 37 °C for 30 min. Following incubation, the suspensions were centrifuged as before, the resulting pellets were resuspended in 100 volumes of 50 mM Tris, pH 7.4 plus 2 mg/mL bovine serum and the suspensions combined. Each assay tube contained 0.5 mL of membrane suspension, 2 nM [^3H]-DAMGO, and 0.02 mg/mL mixture in a total volume of 0.65 mL [13, 45, 53, 55].
(§1) All three binding assays were terminated by filtration through GF/B filters, soaked in 5 mg/mL bovine serum albumin, 50 mM Tris, pH 7.4, on a Tomtec Mach II Harvester 96. The filters were subsequently washed with 6 mL of assay buffer. Bound radioactivity was counted on a Wallac Betaplate Liquid Scintillation Counter. Experiments were conducted using two replicates and repeated twice. Values in Scheme 2 represent the mean ± SD of two experiments with two replicates in each test.

[1] = biological target: T2, delta-opioid receptor (DOR) (Rattus norvegicus, UniProt P33533); test: DOR radioligand competition binding assay ([3H]-DPDPE); conditions: Delta screening results
T2 construct: Rat cortices were homogenized using 50 mM Tris, pH 7.4, 10 mM MgCl2-6H2O, 200 µM PMSF; from tissue; host or cells: rat cortex membranes
Description: DOR binding assay: Rat cortices were homogenized using 50 mM Tris, pH 7.4, 10 mM MgCl2-6H2O, 200 µM PMSF, centrifuged and incubated as above. Each assay tube contained 2 nM [^3H]-DPDPE. Assay tubes were incubated for 2.5 h at 25 °C. Unlabeled DPDPE was used as a competitor to generate a standard curve and determine nonspecific binding.
as §1

[2] = biological target: T3, kappa-opioid receptor (KOR) (Cavia porcellus, UniProt P41144); test: KOR radioligand competition binding assay ([3H]U69,593); parameters: species or system guinea pig; conditions: Kappa screening results
T3 construct: Guinea pig cortices and cerebella were homogenized using 50 mM Tris, pH 7.4; from tissue; host or cells: guinea pig cortex and cerebellum membranes
Description: KOR binding assay: Guinea pig cortices and cerebella were homogenized using 50 mM Tris, pH 7.4, 10 mM MgCl2-6H2O, […] centrifuged and incubated as above. Each assay tube contained 2 nM [^3H]U69,593. Assay tubes were incubated for 2 h at 25 °C. Unlabeled U50,488 was used as a competitor to generate a standard curve and determine nonspecific binding.
as §1

[3] = experiment 1, unit inferred, read-out: Ki (Exp 1)
[4] = experiment 2, unit inferred, read-out: Ki (Exp 2)
[5] = mean of Exp 1 and Exp 2, unit inferred, read-out: MEAN (Ki)
[6] = mean of two experiments, read-out: Ki
[7] = first Ki column, unit not printed (apparently M), read-out: Ki (first column)
[8] = mean of both Ki, unit inferred, read-out: MEAN (Ki)
[9] = second Ki column, unit not printed (apparently M), read-out: Ki (second column)

| Compound | Ki (mu-opioid receptor (MOR); [3]) [µM] | Ki (mu-opioid receptor (MOR); [4]) [µM] | Ki (mu-opioid receptor (MOR); [5]) [µM] | Ki (mu-opioid receptor (MOR); [6]) [µM] | Ki [1, 7] [µM] | Ki [1, 8] [µM] | Ki [1, 6] [µM] | Ki [1, 9] [µM] | Ki [2, 3] [µM] | Ki [2, 4] [µM] | Ki [2, 5] [µM] | Ki [2, 6] [µM] |
| --- | --- | --- | --- | --- | --- | --- | --- | --- | --- | --- | --- | --- |
| N=C1NC[C@H](Cc2ccccc2)N1C[C@H](Cc1ccccc1)N1C[C@H](Cc2ccc(O)cc2)NC1=N [1968-2] | 0.135 | 0.142 | 0.139 | 0.139 | 6.92 | 8.1 | 8.1 | 9.28 | 5.36 | 5.57 | 5.46 | 5.46 |
| CC(C)C[C@H]1CN([C@@H](Cc2ccccc2)CN2C(=N)NC[C@@H]2Cc2ccccc2)C(=N)N1 [1968-3] | 2.56 | 2.63 | 2.59 | 2.59 | 6.37 | 6.66 | 6.66 | 6.95 | 4.51 | 4.84 | 4.67 | 4.67 |
| N=C1NC[C@H](Cc2ccccc2)N1C[C@H](Cc1ccc(O)cc1)N1C[C@H](Cc2ccccc2)NC1=N [1968-5] | 0.925 | 0.671 | 0.798 | 0.798 | 6.4 | 9.23 | 9.23 | 12.1 | 3.95 | 3.73 | 3.84 | 3.84 |
| N=C1NC[C@H](Cc2ccccc2)N1C[C@H](Cc1ccc(O)cc1)N1C[C@H](Cc2ccc(O)cc2)NC1=N [1968-6] | 0.0845 | 0.0672 | 0.0758 | 0.076 | 4.88 | 4.98 | 4.98 | 5.09 | 5.35 | 3.43 | 4.39 | 4.39 |
| CC(C)C[C@@H](CN1C(=N)NC[C@@H]1Cc1ccccc1)N1C[C@H](Cc2ccccc2)NC1=N [1968-9] | 0.848 | 0.955 | 0.901 | 0.901 | 9.83 | 7.82 | 7.82 | 5.81 | 11.4 | 10.9 | 11.1 | 11.1 |
| CC(C)C[C@@H](CN1C(=N)NC[C@@H]1Cc1ccccc1)N1C[C@H](Cc2ccc(O)cc2)NC1=N [1968-10] | 0.199 | 0.281 | 0.24 | 0.24 | 2.23 | 2.21 | 2.21 | 2.19 | 5.47 | 4.84 | 5.16 | 5.16 |
| CC(C)C[C@H]1CN([C@@H](CC(C)C)CN2C(=N)NC[C@@H]2Cc2ccccc2)C(=N)N1 [1968-11] | 2.98 | 3.04 | 3.01 | 3.01 | 26.4 | 58.6 | 58.6 | 90.9 | 13.9 | 8.93 | 11.4 | 11.4 |
| Cc1cc(O)cc(C)c1C[C@H]1CN([C@@H](CC(C)C)CN2C(=N)NC[C@@H]2Cc2ccccc2)C(=N)N1 [1968-12] | 0.0674 | 0.0659 | 0.0666 | 0.067 | 1.95 | 1.85 | 1.85 | 1.75 | 1.03 | 1.29 | 1.16 | 1.16 |
| Cc1cc(O)cc(C)c1C[C@@H](CN1C(=N)NC[C@@H]1Cc1ccccc1)N1C[C@H](CC(C)C)NC1=N [1968-15] | 0.35 | 0.26 | 0.305 | 0.305 | 1.07 | 1.25 | 1.25 | 1.44 | 0.568 | 0.504 | 0.536 | 0.536 |
| N=C1NC[C@H](Cc2ccc(O)cc2)N1C[C@H](Cc1ccccc1)N1C[C@H](Cc2ccccc2)NC1=N [1968-17] | 1.07 | 0.741 | 0.907 | 0.907 | 7.93 | 7.1 | 7.1 | 6.27 | 6.27 | 6.84 | 6.55 | 6.55 |
| N=C1NC[C@H](Cc2ccc(O)cc2)N1C[C@H](Cc1ccccc1)N1C[C@H](Cc2ccc(O)cc2)NC1=N [1968-18] | 0.403 | 0.401 | 0.402 | 0.402 | 7.57 | 8.08 | 8.08 | 8.58 | 3.47 | 3.63 | 3.55 | 3.55 |
| CC(C)C[C@H]1CN([C@@H](Cc2ccc(O)cc2)CN2C(=N)NC[C@@H]2Cc2ccc(O)cc2)C(=N)N1 [1968-23] | 2.35 | 2.27 | 2.31 | 2.31 | – | – | – | – | 9.52 | 7.36 | 8.44 | 8.44 |
| CC(C)C[C@H]1CN([C@@H](CC(C)C)CN2C(=N)NC[C@@H]2Cc2ccc(O)cc2)C(=N)N1 [1968-27] | 0.96 | 1 | 0.981 | 0.981 | – | – | – | – | 4.24 | 4.84 | 4.54 | 4.54 |
| CC(C)C[C@H]1CN([C@@H](Cc2ccccc2)CN2C(=N)NC[C@@H]2C)C(=N)N1 [1968-35] | 4.45 | 4.58 | 4.51 | 4.51 | – | – | – | – | 34.1 | 52.6 | 43.3 | 43.3 |
